For assay [1], the target named is T1, urease (Canavalia ensiformis, UniProt P07374).
T1 construct: Type III powder, urease from C. ensiformis (Merck)
The assay is described as follows: colorimetric urease assay (phenol red), Dixon plot; IC50 […]. The assay is classed as biochemical.

The target in assay [2] is T1, urease. The assay can be described thus: colorimetric urease assay (phenol red), dose-response. Format: biochemical.

Structures are written as SMILES.

T1 sequence (P07374 whole entry, looked up): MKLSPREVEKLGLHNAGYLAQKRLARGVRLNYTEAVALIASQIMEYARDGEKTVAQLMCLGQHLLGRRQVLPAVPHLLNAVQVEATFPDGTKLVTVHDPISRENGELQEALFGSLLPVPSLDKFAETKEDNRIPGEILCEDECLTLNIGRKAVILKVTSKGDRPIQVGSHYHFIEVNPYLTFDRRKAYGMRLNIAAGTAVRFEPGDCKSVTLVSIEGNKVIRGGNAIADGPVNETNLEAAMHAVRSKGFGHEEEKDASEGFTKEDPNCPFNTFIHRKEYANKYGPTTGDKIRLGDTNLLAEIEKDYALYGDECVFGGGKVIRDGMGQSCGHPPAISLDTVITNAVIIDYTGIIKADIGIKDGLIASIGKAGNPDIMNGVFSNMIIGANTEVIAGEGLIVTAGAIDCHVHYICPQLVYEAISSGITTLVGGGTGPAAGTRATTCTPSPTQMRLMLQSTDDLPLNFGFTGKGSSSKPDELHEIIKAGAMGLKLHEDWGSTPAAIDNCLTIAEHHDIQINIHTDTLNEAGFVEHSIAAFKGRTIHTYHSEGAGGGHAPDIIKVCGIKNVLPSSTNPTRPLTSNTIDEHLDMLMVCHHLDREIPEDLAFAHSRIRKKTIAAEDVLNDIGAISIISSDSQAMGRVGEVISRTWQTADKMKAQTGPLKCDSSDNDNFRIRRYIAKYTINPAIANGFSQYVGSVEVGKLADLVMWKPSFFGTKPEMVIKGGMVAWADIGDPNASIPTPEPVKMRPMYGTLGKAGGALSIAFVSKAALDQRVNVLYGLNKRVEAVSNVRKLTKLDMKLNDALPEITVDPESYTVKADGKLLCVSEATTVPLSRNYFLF

With `NC(=O)CS` [2-MA, 2-mercaptoacetamide], the affinity on urease [1] corresponds to a Ki of 2.95 mM.
As for `CC(=O)NO` [AHA, acetohydroxamic acid], it took 4.8 mM to reach half-maximal inhibition against urease [2] (IC50).

(Values after paper PMC7881204, “A small-molecular inhibitor against Proteus mirabilis urease to treat catheter-associated urinary tract infections” (Scientific Reports, 2021).)
